Assay results from patent publication US6150385A, “1,3,4-thiadiazoles useful for the treatment of CMV infections” (Pharmacia & Upjohn Company, priority 1999, dated 2000).

molecular target: T1, HCMV polymerase (Human cytomegalovirus, UniProt P08546); assay: HCMV polymerase assay (scintillation proximity assay); format: biochemical; conditions: percentage of inhibition at 25 μM concentration in CMV polymerase assay
T1 construct: made in house; host or cells: SF-9 insect cells infected with recombinant baculovirus
T1 sequence (P08546 whole entry): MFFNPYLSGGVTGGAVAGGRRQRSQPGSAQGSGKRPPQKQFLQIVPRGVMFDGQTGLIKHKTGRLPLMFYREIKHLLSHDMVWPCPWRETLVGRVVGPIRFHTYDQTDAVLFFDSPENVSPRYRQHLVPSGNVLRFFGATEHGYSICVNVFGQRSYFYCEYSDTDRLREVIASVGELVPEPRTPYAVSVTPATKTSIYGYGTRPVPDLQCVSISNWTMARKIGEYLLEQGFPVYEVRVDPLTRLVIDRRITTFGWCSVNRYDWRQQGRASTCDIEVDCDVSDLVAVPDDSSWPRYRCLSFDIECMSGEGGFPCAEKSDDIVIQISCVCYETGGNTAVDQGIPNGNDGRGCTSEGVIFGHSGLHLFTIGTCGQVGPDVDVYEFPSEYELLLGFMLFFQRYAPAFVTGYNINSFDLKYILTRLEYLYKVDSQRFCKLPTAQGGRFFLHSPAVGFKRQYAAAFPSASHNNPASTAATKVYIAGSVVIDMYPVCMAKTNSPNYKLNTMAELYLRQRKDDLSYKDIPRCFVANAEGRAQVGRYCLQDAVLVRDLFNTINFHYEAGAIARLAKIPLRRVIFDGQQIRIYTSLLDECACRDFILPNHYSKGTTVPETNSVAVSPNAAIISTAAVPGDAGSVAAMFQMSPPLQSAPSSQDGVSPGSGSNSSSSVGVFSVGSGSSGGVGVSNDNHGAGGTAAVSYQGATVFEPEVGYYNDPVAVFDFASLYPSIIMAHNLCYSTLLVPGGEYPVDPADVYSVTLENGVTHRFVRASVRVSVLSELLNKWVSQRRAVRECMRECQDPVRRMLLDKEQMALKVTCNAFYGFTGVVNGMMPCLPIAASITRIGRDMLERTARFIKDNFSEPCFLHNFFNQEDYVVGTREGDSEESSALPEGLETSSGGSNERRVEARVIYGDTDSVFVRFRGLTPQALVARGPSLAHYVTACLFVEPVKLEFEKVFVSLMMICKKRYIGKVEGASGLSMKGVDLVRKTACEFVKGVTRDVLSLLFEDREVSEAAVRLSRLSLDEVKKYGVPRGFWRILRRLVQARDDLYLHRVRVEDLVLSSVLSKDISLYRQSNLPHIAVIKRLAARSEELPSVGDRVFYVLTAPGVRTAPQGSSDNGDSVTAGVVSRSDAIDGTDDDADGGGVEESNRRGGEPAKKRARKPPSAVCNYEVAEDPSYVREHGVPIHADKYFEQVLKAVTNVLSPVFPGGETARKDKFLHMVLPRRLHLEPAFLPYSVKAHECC
How it was run: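 Baculovirus/SF-9-expressed HCMV polymerase in 5.4 mM HEPES pH 7.5, 11.7 mM KCl, 4.5 mM MgCl2, 0.36 mg/ml BSA, 90 nM 3H-dTTP, with or without 2 mM CHAPS. Started with 6 nM biotinylated poly(dA)-oligo(dT), 30 min at 25 or 37 °C, EDTA-stopped, read by streptavidin-SPA counting; % inhibition at 25 μM.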

| SMILES | inhibition at 25 µM | % Inhib |
| --- | --- | --- |
| O=C(Nc1nnc(NCc2ccncc2)s1)c1cc2ccccc2s1 [compound 222, N-{5-[(4-pyridinylmethyl)amino]-1,3,4-thiadiazol-2-yl}-1-benzothiophene-2-carboxamide] | 43.2% | – |
| NS(=O)(=O)c1ccc(CNc2nnc(NC(=O)c3cc4ccccc4s3)s2)cc1 [compound 223, N-(5-{[4-(aminosulfonyl)benzyl]amino}-1,3,4-thiadiazol-2-yl)-1-benzothiophene-2-carboxamide] | 43.1% | – |
| COc1ccccc1C(=O)Nc1nnc(NCC(c2ccccc2)c2ccccc2)s1 [compound 224, N-{5-[(2,2-diphenylethyl)amino]-1,3,4-thiadiazol-2-yl}-2-methoxybenzamide] | 43% | – |
| O=C(Nc1nnc(NCCC(c2ccccc2)c2ccccc2)s1)c1cccc([N+](=O)[O-])c1 [compound 226, N-{5-[(3,3-diphenylpropyl)amino]-1,3,4-thiadiazol-2-yl}-3-nitrobenzamide] | 42.9% | – |
| O=C(Nc1nnc(NCCCN2CCCC2=O)s1)c1cc(F)cc(F)c1 [compound 228, 3,5-difluoro-N-(5-{[3-(2-oxo-1-pyrrolidinyl)propyl]amino}-1,3,4-thiadiazol-2-yl)benzamide] | 42.8% | – |
| Cc1ccc(C(=O)Nc2nnc(NCCc3ccc(S(N)(=O)=O)cc3)s2)cc1 [compound 230, N-(5-{[4-(aminosulfonyl)phenethyl]amino}-1,3,4-thiadiazol-2-yl)-4-methylbenzamide] | 42.3% | – |
| CC(C)c1cc(C(C)C)c(C(=O)Nc2nnc(NCCN3CCCCC3)s2)c(C(C)C)c1 [compound 232, 2,4,6-triisopropyl-N-{5-[(2-piperidinoethyl)amino]-1,3,4-thiadiazol-2-yl}benzamide] | 42.2% | – |
| O=C(Nc1nnc(NCc2cccs2)s1)c1cc2ccccc2s1 [compound 237, N-{5-[(2-thienylmethyl)amino]-1,3,4-thiadiazol-2-yl}-1-benzothiophene-2-carboxamide] | 41.5% | – |
| CCCCCCCC/C=C/CCCCCCCC(=O)Nc1nnc(NCc2ccco2)s1 [compound 238, (E)-N-{5-[(2-furylmethyl)amino]-1,3,4-thiadiazol-2-yl}-9-octadecenamide] | 41.5% | – |
| CCCCCCCCCCCNc1nnc(NC(=O)c2ccc(C(F)(F)F)cc2)s1 [compound 239, 4-(trifluoromethyl)-N-[5-(undecylamino)-1,3,4-thiadiazol-2-yl]benzamide] | 41.4% | – |
| O=C(Nc1nnc(NCCC(c2ccccc2)c2ccccc2)s1)c1ccc(F)cc1F [compound 243, N-{5-[(3,3-diphenylpropyl)amino]-1,3,4-thiadiazol-2-yl}-2,4-difluorobenzamide] | 41.1% | – |
| COc1ccc(CNc2nnc(NC(=O)c3ccc(C#N)cc3)s2)cc1OC [compound 244, 4-cyano-N-{5-[(3,4-dimethoxybenzyl)amino]-1,3,4-thiadiazol-2-yl}benzamide] | 41% | – |
| O=C(Nc1nnc(NCCCCc2ccccc2)s1)c1ccc(S(=O)(=O)F)cc1 [compound 245, 4-[({5-[(4-phenylbutyl)amino]-1,3,4-thiadiazol-2-yl}amino)carbonyl]benzenesulfonyl fluoride] | – | 41.0% |
| CCCCCCCC/C=C/CCCCCCCC(=O)Nc1nnc(NCC2CCCO2)s1 (stereo not shown) [compound 246, (E)-N-{5-[(tetrahydro-2-furanylmethyl)amino]-1,3,4-thiadiazol-2-yl}-9-octadecenamide] | 40.9% | – |
| O=C(Nc1nnc(NCc2ccco2)s1)c1ccc(Cl)c(Cl)c1 [compound 247, 3,4-dichloro-N-{5-[(2-furylmethyl)amino]-1,3,4-thiadiazol-2-yl}benzamide] | 40.9% | – |
| CC(C)c1cc(C(C)C)c(C(=O)Nc2nnc(NCCNc3ccccc3)s2)c(C(C)C)c1 [compound 248, N-{5-[(2-anilinoethyl)amino]-1,3,4-thiadiazol-2-yl}-2,4,6-triisopropylbenzamide] | 40.8% | – |
| CCCCCCCC/C=C/CCCCCCCC(=O)Nc1nnc(NCCC#N)s1 [compound 249, (E)-N-{5-[(2-cyanoethyl)amino]-1,3,4-thiadiazol-2-yl}-9-octadecenamide] | 40.6% | – |
| CC(C)c1cc(C(C)C)c(C(=O)Nc2nnc(NC3CCCCCC3)s2)c(C(C)C)c1 [compound 250, N-[5-(cycloheptylamino)-1,3,4-thiadiazol-2-yl]-2,4,6-triisopropylbenzamide] | 40.5% | – |
| O=C(Nc1nnc(NCCc2c[nH]c3ccccc23)s1)c1ccc(I)cc1 [compound 252, N-(5-{[2-(1H-indol-3-yl)ethyl]amino}-1,3,4-thiadiazol-2-yl)-4-iodobenzamide] | 40.2% | – |
| O=C(Nc1nnc(NC2CCCCCC2)s1)c1cc2ccccc2s1 [compound 256, N-[5-(cycloheptylamino)-1,3,4-thiadiazol-2-yl]-1-benzothiophene-2-carboxamide] | 39.8% | – |
| CC(=O)NCCNc1nnc(NC(=O)c2ccc3c(c2)C(=O)OC3=O)s1 [compound 258, N-(5-{[2-(acetylamino)ethyl]amino}-1,3,4-thiadiazol-2-yl)-1,3-dioxo-1,3-dihydro-2-benzofuran-5-carboxamide] | 39.7% | – |
| NS(=O)(=O)c1ccc(CCNc2nnc(NC(=O)c3c(Cl)cccc3Cl)s2)cc1 [compound 259, N-(5-{[4-(aminosulfonyl)phenethyl]amino}-1,3,4-thiadiazol-2-yl)-2,6-dichlorobenzamide] | 39.6% | – |
| CCOc1ccc2ccccc2c1C(=O)Nc1nnc(NC[C@@H]2CCC3CC2C3(C)C)s1 (stereo partly drawn) [compound 261, N-[5-({[(2R)-6,6-dimethylbicyclo[3.1.1]hept-2-yl]methyl}amino)-1,3,4-thiadiazol-2-yl]-2-ethoxy-1-naphthamide] | 39.5% | – |

Now from value to molecule, other results behind:

| inhibition at 25 µM | SMILES | % Inhib |
| --- | --- | --- |
| 43.6% | O=C(/C=C/c1ccccc1)Nc1nnc(NCCN2CCOCC2)s1 [compound 220, (E)-N-{5-[(2-morpholinoethyl)amino]-1,3,4-thiadiazol-2-yl}-3-phenyl-2-propenamide] | – |
| 43.5% | O=C(/C=C/c1ccccc1Cl)Nc1nnc(NCCCn2ccnc2)s1 [compound 221, (E)-3-(2-chlorophenyl)-N-(5-{[3-(1H-imidazol-1-yl)propyl]amino}-1,3,4-thiadiazol-2-yl)-2-propenamide] | – |
| 42.9% | O=C(Nc1nnc(NCCCCc2ccccc2)s1)c1c(Cl)cccc1Cl [compound 225, 2,6-dichloro-N-{5-[(4-phenylbutyl)amino]-1,3,4-thiadiazol-2-yl}benzamide] | – |
| 42.8% | CCOc1ccc2ccccc2c1C(=O)Nc1nnc(NC2CC2)s1 [compound 227, N-[5-(cyclopropylamino)-1,3,4-thiadiazol-2-yl]-2-ethoxy-1-naphthamide] | – |
| 42.3% | CCOc1ccc2ccccc2c1C(=O)Nc1nnc(NCCCCc2ccccc2)s1 [compound 231, 2-ethoxy-N-{5-[(4-phenylbutyl)amino]-1,3,4-thiadiazol-2-yl}-1-naphthamide] | – |
| 42.1% | CCOc1ccc2ccccc2c1C(=O)Nc1nnc(NCC(C)(C)C)s1 [compound 233, 2-ethoxy-N-[5-(neopentylamino)-1,3,4-thiadiazol-2-yl]-1-naphthamide] | – |
| 42% | O=C(Nc1nnc(NCCc2cccs2)s1)c1cc2ccccc2s1 [compound 234, N-(5-{[2-(2-thienyl)ethyl]amino}-1,3,4-thiadiazol-2-yl)-1-benzothiophene-2-carboxamide] | – |
| 41.6% | O=C(Nc1nnc(NCCNc2ccccc2)s1)c1cc2ccccc2s1 [compound 236, N-{5-[(2-anilinoethyl)amino]-1,3,4-thiadiazol-2-yl}-1-benzothiophene-2-carboxamide] | – |
| 41.3% | O=C(/C=C/c1ccccc1Cl)Nc1nnc(NCCC(c2ccccc2)c2ccccc2)s1 [compound 240, (E)-3-(2-chlorophenyl)-N-{5-[(3,3-diphenylpropyl)amino]-1,3,4-thiadiazol-2-yl}-2-propenamide] | – |
| 41.3% | O=C(Nc1nnc(NCc2ccccn2)s1)c1c(Cl)cccc1Cl [compound 241, 2,6-dichloro-N-{5-[(2-pyridinylmethyl)amino]-1,3,4-thiadiazol-2-yl}benzamide] | – |
| 41.3% | CCOc1ccc2ccccc2c1C(=O)Nc1nnc(NCCCn2ccnc2)s1 [compound 242, 2-ethoxy-N-(5-{[3-(1H-imidazol-1-yl)propyl]amino}-1,3,4-thiadiazol-2-yl)-1-naphthamide] | – |
| 40.3% | O=C(/C=C/c1ccccc1Cl)Nc1nnc(NCc2ccco2)s1 [compound 251, (E)-3-(2-chlorophenyl)-N-{5-[(2-furylmethyl)amino]-1,3,4-thiadiazol-2-yl}-2-propenamide] | – |
| 40.1% | CCCCCCCC/C=C/CCCCCCCC(=O)Nc1nnc(NC2CCN(Cc3ccccc3)CC2)s1 [compound 253, (E)-N-{5-[(1-benzyl-4-piperidinyl)amino]-1,3,4-thiadiazol-2-yl}-9-octadecenamide] | – |
| 40% | O=C(CCCCCl)Nc1nnc(NCCSc2ccccc2)s1 [compound 254, 5-chloro-N-(5-{[2-(phenylsulfanyl)ethyl]amino]-1,3,4-thiadiazol-2-yl)pentanamide] | – |
| 39.9% | O=C(Nc1nnc(NCCc2c[nH]c3ccccc23)s1)c1c(Cl)cccc1Cl [compound 255, 2,6-dichloro-N-(5-{[2-(1H-indol-3-yl)ethyl]amino}-1,3,4-thiadiazol-2-yl)benzamide] | – |
| 39.8% | CCCCCCCCCCCNc1nnc(NC(=O)c2cc3ccccc3s2)s1 [compound 257, N-[5-(undecylamino)-1,3,4-thiadiazol-2-yl]-1-benzothiophene-2-carboxamide] | – |
| 39.6% | CC(C)c1cc(C(C)C)c(C(=O)Nc2nnc(NCCCCc3ccccc3)s2)c(C(C)C)c1 [compound 260, 2,4,6-triisopropyl-N-{5-[(4-phenylbutyl)amino]-1,3,4-thiadiazol-2-yl}benzamide] | – |
